The values that follow are results of earlier work, collected in US20070142460A1, “Compounds, compositions and methods” (priority 2003, published 2007).

This data set relates to A549 cells.

As a reminder, the GI50 is the concentration that inhibits growth by half. As to `O=c1[nH]cc(F)c(=O)[nH]1` [5-fluorouracil], the GI50 was 1000 nM.

Turning to `COc1cccc2c1C(=O)c1c(O)c3c(c(O)c1C2=O)C[C@@](O)(C(=O)CO)C[C@@H]3O[C@H]1C[C@H](N)[C@H](O)[C@H](C)O1` [doxorubicin], the GI50 is 63 nM.

For `NC(=O)NO` [hydroxyurea], the GI50 was 500000 nM.

As to `CC(=O)O[C@H]1C(=O)[C@@]2(C)[C@H]([C@H](OC(=O)c3ccccc3)[C@]3(O)C[C@H](OC(=O)[C@H](O)[C@@H](NC(=O)c4ccccc4)c4ccccc4)C(C)=C1C3(C)C)[C@]1(OC(C)=O)CO[C@@H]1C[C@@H]2O` [paclitaxel], the GI50 is 4 nM.
